Experimental data as given in a melting point compilation (Tetko et al.; mined from patent text by program, amines drawn as free bases though some values may be those of a salt).

Row | SMILES | melting point [°C]
1 | NS(=O)(=O)c1ccc(-n2nc(C(F)(F)F)cc2-c2ccc(-c3cscn3)c(C(F)(F)F)c2)cn1 | 114
2 | Cc1ccc(C(=O)OC2CCC3(C)C(=CCC4C3CCC3(C)C(=NO)CCC43)C2)cc1 (configuration not stated) | 135 to 139
3 | CC(C)=C(C[C@H](N)C(=O)O)C(=O)O | 198 to 199
4 | CCOC(=O)c1c(O)nc(SCC)n1C(C)C | 82 to 84
5 | CCOC(=O)N1Cc2ccccc2C2(Cc3ccccc3O2)C1 (configuration not stated) | 65 to 75
6 | COC(=O)c1ccn2ccnc2c1 | 143
7 | CCC1c2ncn(CC)c2CCN1C(=S)NC(C)C (configuration not stated) | 196
8 | O=C(O)c1ccc(-n2cnnc2)cc1 | > 300
9 | Fc1ccc(Cn2c(NC3CCN(CCc4ccccc4)C3)nc3ccccc32)cc1 (configuration not stated) | 126
10 | CCN1C[C@@H](O)[C@H](N(CCc2ccccc2)C(=O)c2ccccc2)C1 (relative stereo) | 71 to 75
11 | O=C(O)c1ccc(-c2nccs2)nc1 | > 300
12 | C=CCn1c(=O)n(CCC)c(=O)c2[nH]c(C34CC5CC(CC3C5)C4)nc21 | 196 to 197
13 | Cn1nnnc1CC(=O)c1cc(F)c(F)cc1N | 162 to 164
14 | Cc1c(N2C[C@@H]3CCCN[C@@H]3C2)c(F)cc2c(=O)c(C(=O)O)cn([C@@H]3C[C@@H]3F)c12 | 244 to 245
15 | O=C(C=Cc1ccc[nH]1)c1ccccc1Br | 76 to 78
16 | O=C1C(=O)c2ccccc2C2=C1SCC1(CCN(C(=O)CSc3ccccc3)CC1)O2 | 155 to 157
17 | Cc1ccnc(NC(c2ccc(C(F)(F)F)cc2)c2ccc3cccnc3c2O)c1 (configuration not stated) | 104 to 107
18 | COc1ccccc1CN[C@@H]1[C@@H]2CCN([C@H](CCc3ccccc3)C2)[C@@H]1C(c1ccccc1)c1ccccc1 (relative stereo) | 107 to 108
19 | CCS(=O)(=O)C(NC(C)=O)C(=O)NCc1ccccc1 (configuration not stated) | 161 to 163
20 | OC(c1ncc[nH]1)(c1ccc(Cl)cc1Cl)c1ccc(Cl)cc1Cl | 193
21 | N#Cc1cccc(C=CCN2CCc3nc(N)sc3CC2)c1 | 136 to 140
22 | COc1c(C)cnc(C#N)c1C | 59 to 61
23 | O=C(O)CSc1nc(Cl)cc(Cl)n1 | 120 to 122
24 | CN1CCCC(OC(=O)Nc2ccc(C(F)(F)F)cc2)C1 (configuration not stated) | 119 to 120
25 | Cc1cc(Br)nc(Br)c1 | 77
26 | COC(=O)c1cc(Br)c(O)c(O)c1Cl | 103

Row | SMILES | melting point [°C]
27 | Cn1nnnc1-c1cnc2cc(F)c(F)cc2c1O | > 300
28 | O=C(CCl)Nc1c(S)cccc1Cl | 186 to 187
29 | CN(C)C(=O)c1cc(Cl)ccc1N | 97 to 98
30 | COC(=O)Cc1sc(F)c(N=c2sc(=O)n3n2CCCC3)c1Cl | 99 to 101
31 | CCOC(=O)c1sc2nc(CBr)c(CC)c(=O)n2c1C | 146 to 148
32 | O=c1nc(-c2ccccc2)oc2ccccc12 | 104 to 105
33 | N#Cc1ccc(-c2ccc(-c3ccc(C#N)cn3)s2)cc1 | 316 to 318
34 | O=S1C(c2ccccc2)CC2(CC1c1ccccc1)OCCO2 (configuration not stated) | 230 to 232
35 | c1cn(Cc2ccc3c(c2)Cc2c(-c4ccsc4)n[nH]c2-3)cn1 | 255 to 260
36 | O=C(O)c1sc(Cl)nc1C(F)(F)F | 131 to 132
37 | CC12CCC(C1)C1(C)Oc3ccc(C4(c5ccc(C(=O)O)cc5)OCCO4)cc3C21C (configuration not stated) | 234 to 236
38 | CCCn1c(C)nc(N2CCc3ccccc3CC2)c([N+](=O)[O-])c1=O | 164 to 170
39 | O=C(O)CC(Sc1cccs1)C(=O)O (configuration not stated) | 136 to 138
40 | CC1(O)CC(C)(C)N(N=Cc2ccccc2)C(C)(C)C1 | 84
41 | Oc1ccccc1C=NNc1nc(C(Cl)(Cl)Cl)ns1 | 204 to 205
42 | CCC1(C)CC(NC(=O)c2ccccc2C(=O)O)C(C)C(C)(CC)N1 (configuration not stated) | 196 to 197
43 | CCC(=O)C1=C(O)CC(c2ccc3c(c2)CCCC3)CC1=O (configuration not stated) | 87
44 | CC1CCC(=NNc2ccccc2)c2ncc(Br)c(=O)n21 (configuration not stated) | 190 to 192
45 | O=C(c1ccc(Cl)cc1)C(O)(Cn1cncn1)C(Cl)(Cl)Cl (configuration not stated) | 173 to 174
46 | CCOC(=O)C(=O)Nc1cccc(F)c1O | 168
47 | O=C(c1c[nH]c2cc(O)ccc12)C1CSC(c2cccnc2)N1 (configuration not stated) | 203 to 205
48 | O=C1NC(=O)C(c2ccccc2Cl)O1 (configuration not stated) | 106 to 108
49 | C=CCC1(C(C)(C)C(=O)O)C(=O)NC(=O)NC1=O | 202 to 203
50 | O=C(N[C@H]1CC[C@H](CCN2CCN(c3nccc4c3CCO4)CC2)CC1)c1ccc(-c2cccnc2)cc1 | 218
51 | O=C1NCCn2c1cc1c2CCCC1 | 207 to 209
52 | CCN(CC)C1CCN(c2ccc(C(C)=O)cc2)CC1 | 125 to 127

The next lines start with the values.

Row | melting point [°C] | SMILES
53 | 154 to 156 | C#CCCCOc1cc(/C=C/C(=O)Nc2ccccc2C(=O)O)ccc1OC
54 | 148 to 150 | COc1ccc(C)cc1C(=O)NCCc1ccc(CC(=O)O)cc1
55 | 68 to 71 | CCCSc1nc(C)c(CC(=O)O)n1-c1ccccc1Cl
56 | 64 to 66 | CCC(=NOCc1ccc(Cl)cc1)c1cc(Cl)ccc1N(C(C)=O)S(=O)(=O)C(F)(F)F
57 | 88 to 90 | COC(=O)C(Cc1ccc(OCCN(C)c2nc3ccccc3o2)cc1)Oc1ccc(Cl)cc1 (configuration not stated)
58 | 84 to 85 | CN(C)CCCNC(=O)N1C(=O)Cc2cc(Cl)ccc21
59 | 133 to 135 | O=C(c1cccs1)c1cnn2c(-c3cccc(NCc4cccc(Cl)c4)c3)ccnc12
60 | 200 to 210 | CCN(CC)CC/C=C/c1ccc2c(Nc3ccc(Sc4nccn4C)c(Cl)c3)c(C#N)cnc2c1
61 | 235 to 237 | COc1cccc2c1C(=O)c1c(OC)cc(Cc3ccccc3C(O)=S)cc1C2=O
62 | 114 to 116 | COc1ccc(/C=C(\C#N)c2cccc(F)c2)cc1OC1CCCC1
63 | 177 to 179 | Cc1c(-c2cccnc2)n(CCCCc2nnn[nH]2)c2ccccc12
64 | 164 to 165 | Cc1cccc2c1nc(-c1ccccc1Cl)n2CC(C)O (configuration not stated)
65 | 131 to 132 | CCOC(=O)Oc1ccc(S(=O)(=O)N2c3cc(F)c(F)c(F)c3-n3cccc3C2CC)cc1 (configuration not stated)
66 | 100 to 105 | CC(C)(C)OC(=O)N1CCc2c(cc(O)c(O)c2F)C(c2ccc(O)cc2)C1 (configuration not stated)
67 | 143 to 145 | COc1ccc(C(Sc2c(N)ccc3ccccc23)C(O)C(=O)O)cc1 (configuration not stated)
68 | 139 to 141 | COc1ccc(C=C(C#N)c2ccc(F)cc2)cc1OC1CCCC1
69 | 182 to 184 | CCC1=CC(c2cccc([N+](=O)[O-])c2)C2=C(CCCC2=O)N1 (configuration not stated)
70 | 174 to 176 | COc1ccc(C(=O)Nc2ccccc2)cc1NCc1ccc(C(C)C)cc1
71 | 190 to 192 | CC(C)c1cccc(C(C)C)c1NC(=O)CNC(c1ccccc1)c1ccc(O)cc1 (configuration not stated)
72 | 119 to 120 | Cc1cc(=S)c2c(O)cc(OC(C)C)cc2o1
73 | 201 | COc1ccc(C(=O)Cn2cc[nH]c2=O)cc1OC1CCCC1
74 | 254 to 256 | COc1cc2cn[nH]c(=O)c2cc1OC
75 | 132 to 134 | CCCCn1c(C)c(C(=O)Nc2c(CC)cccc2CC)c(=O)c(Br)c1CC
76 | > 275 | COC(=O)Nc1nc(-c2ccccc2)c(-c2nc3ccccc3c(=O)n2-c2ccc(C)cc2)s1
77 | 163 to 165 | COc1ccc2cc(C#N)ccc2n1

Row | melting point [°C] | SMILES
78 | 182 to 184 | CCCc1c(OCCCCCOc2ccc(C(=O)CCC(=O)O)cc2CCC(=O)O)ccc2c1OCCC2=O
79 | 169 to 174 | Cn1ccc(=O)c(OCc2ccccc2)c1C(O)c1cccnc1 (configuration not stated)
80 | 207 to 208 | COc1ccc(Cc2cnc(N)nc2N)cc1OCCNS(=O)(=O)c1ccc(N)cc1
81 | 168 | CCOC(=O)C1=C(C)NC(C)=C([N+](=O)[O-])C1c1cccc(Cl)c1 (configuration not stated)
82 | 264 to 266 | COc1ccc(-c2cc(C(=O)O)cc3ccc4c(c23)OCO4)cc1
83 | 200 to 202 | COc1ccc(C=C2N=C(c3ccccc3I)OC2=O)cc1OC
84 | 122 to 124 | COc1ccc(C(=O)c2ccc3cc(OC)ccc3c2-c2ccccc2)cc1
85 | > 270 | O=C(O)c1ccc(OC(F)F)c2oc3ccc([N+](=O)[O-])cc3c12
86 | 144 | O=c1c2ccccc2oc2cc(OCC(O)CCl)cc(O)c12 (configuration not stated)
87 | 245 | CC(C)NC(=O)N1CCc2[nH]cnc2C1c1ccccc1 (configuration not stated)
88 | 119 to 120 | CCOC(=O)c1c(CCCCn2ccnc2)nc2cc(OC)c(OC)cc2c1-c1ccc(OC)c(OC)c1
89 | 70 to 75 | CCc1cccc(-c2ccc(S(=O)(=O)N3c4ccccc4CC3C(=O)NCc3ccc(CC(=O)OC)cc3)cc2)c1 (configuration not stated)
90 | 134 to 136 | CC(C)(C)c1cc(CCc2ccccc2NC(=O)NCCc2ccc([N+](=O)[O-])cc2)cc(C(C)(C)C)c1O
91 | 195 to 196 | CCOc1ccc(F)cc1C(C)(C)CC(O)(Cn1ccc(=O)c2ccccc21)C(F)(F)F (configuration not stated)
92 | > 270 | O=c1[nH]c2cc(Sc3cccc4cnccc34)c([N+](=O)[O-])cc2s1
93 | 67 to 68 | O=C(O)CCCc1cnoc1-c1ccccc1
94 | 198 to 199 | COc1ccc(C2=NN(C3CCN(S(=O)(=O)c4ccc(C)cc4)CC3)C(=O)[C@H]3CC=CC[C@@H]23)cc1Cl (relative stereo)
95 | 129 to 130 | CCCCCCc1ccc(-n2c(-c3ccc(CC(=O)O)cc3)ccc2-c2ccc(CC(=O)O)cc2)cc1
96 | 144 to 146 | CCOC(=O)C(C(=O)OCC)C1c2ccccc2C(F)(F)C(F)(F)c2ccccc21
97 | 174 to 175 | COC(=O)c1ccc(CN2CCN(c3nc(C)c(C(C)=O)s3)C2=O)cc1
98 | 166 to 167 | COc1cc(OC)c(C(=O)CCl)cc1C
99 | 115 to 117 | Fc1ccc(/C=C/c2nc(COc3ccc(CCCCn4ccnn4)cc3)co2)c(F)c1
100 | 55 | COc1cc(CO)c(-c2cccc(OCCC(C)CCCC(C)C)c2)cc1CO (configuration not stated)
101 | 117 to 119 | CCCc1c(OCC(O)COc2cccc(NC(=O)c3nnn[nH]3)c2C#N)ccc(C(C)=O)c1O (configuration not stated)
102 | 175 to 176 | COC(=O)c1ncoc1-c1cc(OC)c(OC)c(OC)c1
